In ChEMBL document CHEMBL3507680, “University of Dundee, Gates Library screen for HepG2 cell viability”:

Test: Human HepG2 cell viability assay in 384 well format
Type: toxicity, cell-based
Set-up: dose 125 nL, time 70.5 hour; concentration not given beside the values
Details: HepG2 cells, read-out: Inhibition

Cc1noc(C)c1-c1ccc(C2CCCN2C(=O)c2ccncn2)nc1 (configuration not stated)
cytotoxicity at 70.5 h: 27.1%

Cc1cccnc1Nc1nccc(C2CN(CC(N)=O)C2)n1
cytotoxicity at 70.5 h: -3.23%

NC(=O)CN1CCCC(Cc2ccc(N3CCOCC3)nn2)C1 (configuration not stated)
cytotoxicity at 70.5 h: -0.993%

Cc1cccc(C2CCN(S(=O)(=O)c3cn(C)cn3)CC2)n1
cytotoxicity at 70.5 h: -8.21%

CN(C)C(=O)CN1CCCC(Cc2ccc(N3CCCC3)nn2)C1 (configuration not stated)
cytotoxicity at 70.5 h: -9.12%

COCCn1cnnc1C1CCCN(C(C)C)C1 (configuration not stated)
cytotoxicity at 70.5 h: 17.1%

c1ccc(N2CCOC(Cc3cccnc3)C2)cc1 (configuration not stated)
cytotoxicity at 70.5 h: -7.14%

Cc1cc(N2CCCC2c2nc(C)cc(CCC(=O)O)n2)ncn1 (configuration not stated)
cytotoxicity at 70.5 h: -9.37%

Cc1ccnc(C2CCN(S(=O)(=O)c3cn(C)cn3)CC2)n1
cytotoxicity at 70.5 h: -9.62%

CN(C)C(=O)c1cn[nH]c1C1(C)CCCN(Cc2ccccn2)C1 (configuration not stated)
cytotoxicity at 70.5 h: -1.05%

Nc1nccnc1C1CN(C(=O)c2ccc3c(c2)OCO3)CCO1 (configuration not stated)
cytotoxicity at 70.5 h: -13.9%

O=C(O)COCC(=O)NC1CC2(CCCCC2)Oc2ccccc21 (configuration not stated)
cytotoxicity at 70.5 h: 18.3%

Cc1noc(C)c1-c1nc(N(C)C)ncc1-c1cnccn1
cytotoxicity at 70.5 h: -5.02%

Cc1noc(C)c1-c1nc(NCCN(C)C)ncc1-c1cnccn1
cytotoxicity at 70.5 h: -6.59%

c1cncc(CC2CN(c3cccnc3)CCO2)c1 (configuration not stated)
cytotoxicity at 70.5 h: -6.99%

CN1CCN(C(=O)C2CCN(c3cccnn3)C2)CC1 (configuration not stated)
cytotoxicity at 70.5 h: -6.3%

CC(=O)N1CCN(C(=O)C2CCN(c3cccnn3)C2)CC1 (configuration not stated)
cytotoxicity at 70.5 h: -0.877%

CNC(=O)c1ccc(C2CCCN(C(=O)c3sc(C)nc3C)C2)nc1 (configuration not stated)
cytotoxicity at 70.5 h: 2.08%

CC(=O)N1CCc2nc(C3CCN(c4ncccn4)C3)ncc2C1 (configuration not stated)
cytotoxicity at 70.5 h: -0.395%

CCCc1ncc(CNC2(c3ccc(Cl)cc3)CC2)cn1
cytotoxicity at 70.5 h: -4.1%

CCc1ccccc1Nc1noc2c1CN(C(=O)CNC(C)=O)CC2
cytotoxicity at 70.5 h: 6.37%

Cc1nc(C2CCCN2C(=O)Cc2ccc3c(c2)OCO3)nc(O)c1C (configuration not stated)
cytotoxicity at 70.5 h: -5.28%

CCN(Cc1nc(-c2ccco2)no1)Cc1cccc2c1OCO2
cytotoxicity at 70.5 h: -3.24%

COC(C)c1cccc(NCc2cccc(O)c2)c1 (configuration not stated)
cytotoxicity at 70.5 h: -4%

O=C(c1ccccc1F)N(CCCO)S(=O)(=O)c1cccs1
cytotoxicity at 70.5 h: -9.23%

Cc1cc(C)n(CC2CCCN2Cc2ccc(F)cc2C#N)n1 (configuration not stated)
cytotoxicity at 70.5 h: -4.46%

Cc1ccc(N2CCC(NC(C)c3cccs3)CC2)nc1 (configuration not stated)
cytotoxicity at 70.5 h: -2.5%

CC(Cc1ccco1)NC(=O)NCc1ncnn1C (configuration not stated)
cytotoxicity at 70.5 h: 3.51%

COc1cc(CNc2nc(C3CC3)no2)cc(OC)c1OC
cytotoxicity at 70.5 h: 6.45%

CCc1noc(CN2CCN(C(=O)Cc3ccc(F)cc3)CC2)n1
cytotoxicity at 70.5 h: -5.71%

Cn1c(CS(=O)(=O)Cc2cccc(Cl)c2)cc(=O)n(C)c1=O
cytotoxicity at 70.5 h: -4.54%

COc1cc(CO)ccc1OCc1nc(C2CC2)no1
cytotoxicity at 70.5 h: -7.52%

Cc1noc(C2CCCN(C(=O)c3cc(Cl)c(Cl)n3C)C2)n1 (configuration not stated)
cytotoxicity at 70.5 h: -6.05%

CCn1cnnc1CNC(=O)NCC(O)c1ccc(OC)cc1 (configuration not stated)
cytotoxicity at 70.5 h: -4.35%

Cc1noc(C2CCCN(C(=O)c3scnc3Cl)C2)n1 (configuration not stated)
cytotoxicity at 70.5 h: 13%

O=C(CCCc1nc2ccccc2[nH]1)N1CCCC1c1ccccn1 (configuration not stated)
cytotoxicity at 70.5 h: 0.793%

O=C(Cc1cccc(O)c1)NCCNc1nccc(C(F)(F)F)n1
cytotoxicity at 70.5 h: -7.29%

Cc1nc(CC(=O)NCCNc2nccc(C(F)(F)F)n2)cs1
cytotoxicity at 70.5 h: -6.39%

CC(C)(C)n1cc(C#N)cc1NC(=O)CCNC(=O)c1ccco1
cytotoxicity at 70.5 h: 11.3%

CC(C)COc1cncc(NCCc2nnc3ccccn23)n1
cytotoxicity at 70.5 h: -4.15%

CN(C)c1ncc(NC(=O)c2cccc(Nc3cnn(C)c3)c2)cn1
cytotoxicity at 70.5 h: 2.52%

COc1cccc(C(CO)NC(=O)Cc2cccc(C)c2)c1 (configuration not stated)
cytotoxicity at 70.5 h: -4.94%

COc1ccncc1NCc1cscn1
cytotoxicity at 70.5 h: -0.709%

Cc1noc(C2CCCN(C(=O)c3cccc(Cl)c3)C2)n1 (configuration not stated)
cytotoxicity at 70.5 h: -0.713%

CN1CCNC(Cc2ccc(-c3ccncc3)cc2)C1=O (configuration not stated)
cytotoxicity at 70.5 h: -5.04%

c1cn(-c2cnc(C3CCNCC3)cn2)cn1
cytotoxicity at 70.5 h: -10.7%

O=C(CN1CCC(c2cc(=O)n3c(n2)CCCCC3)C1)N1CCCCC1 (configuration not stated)
cytotoxicity at 70.5 h: -8.93%
